# Source: US10059741B2 (priority 2015, dated 2018)
# Values joined by “and” are separate entries in the source; they are usually repeats but may differ in a detail not shown here. Equal entries are not always repeated. Where two headings read alike, the source gives them in different places. Bridge positions count the residues as written; N and C are the ends. Square brackets hold non-standard residues; d marks the D form. Peptide text beside a SMILES is read from it. S5 = C=CCCC[C@](C)(N)C(=O)O; Nle = CCCC[C@H](N)C(=O)O; Aib = CC(C)(N)C(=O)O
# Columns and labels:
# [1] = tested on: Influenza B Florida/04/2006; assay: Cytopathic effect (CPE) inhibition in MDCK cells, neutral red; assay type: cell-based
# [2] = tested on: H5N1 A/Hong Kong/213/2003; assay: microbe, parasite or virus in culture; assay type: cell-based, influenza A virus
# [3] = tested on: H1N1 A/Solomon Island/03/2006; assay type: cell-based, influenza A virus; settings: read-out: EC50 (μM), Cytopathic effect by Neutral Red
# [4] = tested on: Influenza A H1N1 Influenza A/California/7/2009; assay: microbe, parasite or virus in culture; assay type: cell-based, influenza A virus
# H7N9 A/Anhui/1/2013 = assay: microbe, parasite or virus in culture; assay type: cell-based, influenza A virus
# H1N1 California/07/2009 [5] = assay: microbe, parasite or virus in culture; assay type: cell-based, influenza A virus
# [6] = tested on: Influenza B Brisbane/60/2008; assay: Cytopathic effect (CPE) inhibition in MDCK cells, neutral red; assay type: cell-based
# [7] = tested on: Influenza A H3N2 Influenza A/Brisbane/10/2007; assay: microbe, parasite or virus in culture; assay type: cell-based, influenza A virus
# in vitro = settings: dog
# [8] = tested on: influenza virus, various viral strains; assay: Influenza antiviral evaluation assay (CPE, neutral red dye uptake) in MDCK cells against various viral strains (Tables 8, 9); assay type: cell-based
# H3N2 Perth/16/2009 [9] = assay: microbe, parasite or virus in culture; assay type: cell-based, influenza A virus
# [10] = tested on: Influenza A H1N1 Influenza A/Texas/4/2009; assay: microbe, parasite or virus in culture; assay type: cell-based, influenza A virus
# H1N1 California/07/2009 [11] = assay: microbe, parasite or virus in culture; assay type: cell-based, influenza A virus; settings: read-out: EC50 (μM) H1N1 California/07/2009
# [12] = tested on: Influenza B/Brisbane/60/2008; assay: microbe, parasite or virus in culture; assay type: cell-based
# H1N1 A/Brisbane/59/2007 = assay: Cytopathic effect (CPE) inhibition in MDCK cells, neutral red; assay type: cell-based, influenza A virus
# H3N2 Perth/16/2009 [13] = assay: microbe, parasite or virus in culture; assay type: cell-based, influenza A virus; remark: listed apart in the source
# [14] = mouse, in vivo
# [15] = tested on: influenza virus, various viral strains; assay type: cell-based
# H1N1 A/PR/8/34 = settings: read-out: EC50 (μM), Cytopathic effect by Neutral Red
# [16] = read-out: EC50 (μM), Cytopathic effect by Neutral Red
# [17] = read-out: EC50 (μM) H3N2 Perth/16/2009
smiles,measurement,setting,value
CCCC[C@H](NC(C)=O)C(=O)N[C@@H](CC(=O)O)C(=O)N[C@H](C(=O)N[C@@H](CC(N)=O)C(=O)N[C@@]1(C)CCCC=CCCC[C@@](C)(C(=O)N[C@@H](CC(C)C)C(=O)N[C@@H](C)C(=O)N[C@H](C(=O)NC(C)(C)C(=O)N[C@@H](C)C(=O)N[C@@H](CCC(N)=O)C(N)=O)C(C)C)NC(=O)[C@H](CC(C)C)NC(=O)[C@H](CC(C)C)NC(=O)[C@H]([C@@H](C)O)NC1=O)C(C)C [SP-6] (Ac-[Nle]DVN[S5]TLL[S5]LAV[Aib]AQ-NH2; staple 5-9),EC50,[1]; read-out: EC50,18 µM
same,EC50,[1]; [16],10 to 25 µM
same,EC50,[2]; read-out: EC50,> 100 µM
same,EC50,[2]; [16],> 50 µM
same,EC50,[3],1.5 to 10 µM and < 1.5 µM
same,EC50,[4]; read-out: EC50,> 100 µM
same,EC90,[4]; read-out: EC90,> 100 µM
same,EC50,H7N9 A/Anhui/1/2013; read-out: EC50,> 100 µM
same,EC50,H7N9 A/Anhui/1/2013; [16],> 50 µM
same,EC50,H1N1 California/07/2009 [5]; read-out: EC50 (μM) H1N1 California/07/2009,10 to 25 µM
same,EC90,H1N1 California/07/2009 [5]; read-out: EC90,> 36 µM
same,EC50,[6]; read-out: EC50,7.1 µM
same,EC50,[6]; [16],1.5 to 10 µM
same,EC50,[7]; read-out: EC50,> 100 µM
same,EC90,[7]; read-out: EC90,> 100 µM
same,CC50,in vitro; CC50,> 100 µM
same,CC50,"in vitro; CC50 (μM) H1N1 California/07/2009, Cell cytotoxicity (CC), run with H1N1 California/07/2009",> 100 µM
same,CC50,"in vitro; CC50 (μM) H3N2 Perth/16/2009, Cell cytotoxicity (CC), run with H3N2 Perth/16/2009",> 100 µM
same,CC50,"in vitro; CC50, MDCK cells, run with Influenza A H1N1 Brisbane/59/2007, Neutral Red",> 100 µM
same,CC50,"in vitro; CC50, MDCK cells, run with Influenza A H1N1 Brisbane/59/2007, Visual",> 100 µM
same,CC50,"in vitro; CC50, MDCK cells, run with Influenza A H1N1 California/04/2009-M, Neutral Red",> 100 µM
same,CC50,"in vitro; CC50, MDCK cells, run with Influenza A H1N1 California/04/2009-M, Visual",> 100 µM
same,CC50,"in vitro; CC50, MDCK cells, run with Influenza A H1N1 California/07/2009, VYR/Neutral Red",> 100 µM
same,CC50,"in vitro; CC50, MDCK cells, run with Influenza A H1N1 Solomon Is./3/2006-M, Neutral Red",> 100 µM
same,CC50,"in vitro; CC50, MDCK cells, run with Influenza A H1N1 Solomon Is./3/2006-M, Visual",> 100 µM
same,CC50,"in vitro; CC50, MDCK cells, run with Influenza A H1N1 Solomon Is./03/2006, Neutral Red",> 100 µM
same,CC50,"in vitro; CC50, MDCK cells, run with Influenza A H1N1 Solomon Is./03/2006, Visual",> 100 µM
same,CC50,"in vitro; CC50, MDCK cells, run with Influenza A H3N2 Perth/16/2009, Neutral Red",> 100 µM
same,CC50,"in vitro; CC50, MDCK cells, run with Influenza A H3N2 Perth/16/2009, VYR/Neutral Red",> 100 µM
same,CC50,"in vitro; CC50, MDCK cells, run with Influenza A H3N2 Perth/16/2009, Visual",> 100 µM
same,CC50,"in vitro; CC50, MDCK cells, run with Influenza A H3N2 Victoria/3/75-M, Neutral Red",> 100 µM
same,CC50,"in vitro; CC50, MDCK cells, run with Influenza A H3N2 Victoria/3/75-M, Visual",> 100 µM
same,CC50,"in vitro; CC50, MDCK cells, run with Influenza B Brisbane/60/2008, Neutral Red",> 100 µM
same,CC50,"in vitro; CC50, MDCK cells, run with Influenza B Brisbane/60/2008, Visual",> 100 µM
same,CC50,"in vitro; CC50, MDCK cells, run with Influenza B Florida/04/2006, Neutral Red",98 µM
same,CC50,"in vitro; CC50, MDCK cells, run with Influenza B Florida/04/2006, Visual",> 100 µM
same,CC50,"in vitro; CC50, MDCK cells, run with Influenza B Sichuan/379/99-M, Neutral Red",> 100 µM
same,CC50,"in vitro; CC50, MDCK cells, run with Influenza B Sichuan/379/99-M, Visual",> 100 µM
same,CC50,"in vitro; CC50, run with Influenza A H3N2 Perth/16/2006 (so in the source), Neutral Red",> 100 µM
same,CC50,"in vitro; CC50, run with Influenza A H3N2 Perth/16/2006 (so in the source), Visual",> 100 µM
same,antiviral activity across influenza strains,[8],broad antiviral activity
same,EC50,H3N2 Perth/16/2009 [9]; [17],25 to 50 µM
same,EC50,H3N2 Perth/16/2009 [9]; [16],1.5 to 10 µM
same,EC50,[10]; read-out: EC50,> 100 µM
same,EC90,[10]; read-out: EC90,> 100 µM
same,EC50,H1N1 California/07/2009 [11],10 to 25 µM
same,EC50,[12],> 100 µM
same,EC90,[12],> 100 µM
same,EC50,H1N1 A/Brisbane/59/2007; read-out: EC50,5.6 µM and 5.5 µM
same,EC50,H1N1 A/Brisbane/59/2007; [16],1.5 to 10 µM
same,EC90,H3N2 Perth/16/2009 [13],22 µM
same,EC50,H3N2 Perth/16/2009 [13]; [17],25 to 50 µM
same,survival,[14],all mice survived
same,EC50,[15],> 100 µM
same,EC90,[15],> 100 µM and 66 µM and 65 µM
same,EC50,H1N1 A/PR/8/34,10 to 25 µM
